Experimental data from patent US20230295119A1, “SUBSTITUTED PYRIDINES FOR THE TREATMENT OF INFLAMMATORY DISEASES” (GOSSAMER BIO SERVICES, INC., priority 2020, published 2023).
Like-named read-outs stand apart in the source and are kept apart here.

Experiments:
[1] = target: human JAK1 (Homo sapiens (Human), UniProt P23458); experiment: JAK1 TR-FRET kinase assay; format: biochemical; conditions: TR-FRET, JAK1 2.5 nM
[2] = target: human JAK3 (Homo sapiens (Human), UniProt P52333); experiment: JAK3 TR-FRET kinase assay; format: biochemical; conditions: JAK3 0.0125 nM
[3] = target: TYK2 JH2 domain (Homo sapiens (Human), UniProt P29597); experiment: TYK2 JH2 NanoBRET assay; format: binding
Procedure: HEK293T cells were transfected with NanoLuc-TYK2 JH2 Fusion Vector (Promega, customized) using Trans-IT reagent (Mirus, #MIR2700) and incubated for overnight in 37° C. incubator. […] Add 85 µL of cell suspension into white, polypropylene, 96-well plates (Corning, #3600). 90 µL of cells were used for no tracer control samples. 5 µL of diluted NanoBRET K10 tracer (Promega, #CS1810C122) were added to cells to a final concentration of 0.5 µM. Test compounds were diluted into DMSO, and then phenol-free opti-MEM to 10X of final concentration. 10 µL of diluted compounds were added into each well. The cells were incubated with test compound and tracer for 2 hours. 3XNanoBRET® Nano-Glo® Substrate and Extracellular NanoLuc® Inhibitor mixture were prepared and 50 µL of the mixture were added into the wells and mixed. […] NanoBRET signal was determined by using the ratio of acceptor signal and donor signal.

[4] = target: human JAK2 (Homo sapiens (Human), UniProt O60674); experiment: JAK2 TR-FRET kinase assay; format: biochemical; conditions: JAK2 0.025 nM
[5] = HEK293T cells, Table 19, read-out: IC50 (nM), TYK2 activity

Sequence of TYK2 JH2 domain (P29597 589-875): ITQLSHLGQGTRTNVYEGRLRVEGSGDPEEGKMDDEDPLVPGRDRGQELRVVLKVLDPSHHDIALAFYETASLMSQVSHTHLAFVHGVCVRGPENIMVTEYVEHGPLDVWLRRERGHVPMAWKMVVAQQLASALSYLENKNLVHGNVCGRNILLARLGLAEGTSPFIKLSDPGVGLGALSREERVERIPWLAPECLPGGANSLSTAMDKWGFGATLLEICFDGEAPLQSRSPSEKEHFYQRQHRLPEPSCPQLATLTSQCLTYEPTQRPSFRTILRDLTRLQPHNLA
Sequence of human JAK3 (P52333 whole entry, the tested form may be a part): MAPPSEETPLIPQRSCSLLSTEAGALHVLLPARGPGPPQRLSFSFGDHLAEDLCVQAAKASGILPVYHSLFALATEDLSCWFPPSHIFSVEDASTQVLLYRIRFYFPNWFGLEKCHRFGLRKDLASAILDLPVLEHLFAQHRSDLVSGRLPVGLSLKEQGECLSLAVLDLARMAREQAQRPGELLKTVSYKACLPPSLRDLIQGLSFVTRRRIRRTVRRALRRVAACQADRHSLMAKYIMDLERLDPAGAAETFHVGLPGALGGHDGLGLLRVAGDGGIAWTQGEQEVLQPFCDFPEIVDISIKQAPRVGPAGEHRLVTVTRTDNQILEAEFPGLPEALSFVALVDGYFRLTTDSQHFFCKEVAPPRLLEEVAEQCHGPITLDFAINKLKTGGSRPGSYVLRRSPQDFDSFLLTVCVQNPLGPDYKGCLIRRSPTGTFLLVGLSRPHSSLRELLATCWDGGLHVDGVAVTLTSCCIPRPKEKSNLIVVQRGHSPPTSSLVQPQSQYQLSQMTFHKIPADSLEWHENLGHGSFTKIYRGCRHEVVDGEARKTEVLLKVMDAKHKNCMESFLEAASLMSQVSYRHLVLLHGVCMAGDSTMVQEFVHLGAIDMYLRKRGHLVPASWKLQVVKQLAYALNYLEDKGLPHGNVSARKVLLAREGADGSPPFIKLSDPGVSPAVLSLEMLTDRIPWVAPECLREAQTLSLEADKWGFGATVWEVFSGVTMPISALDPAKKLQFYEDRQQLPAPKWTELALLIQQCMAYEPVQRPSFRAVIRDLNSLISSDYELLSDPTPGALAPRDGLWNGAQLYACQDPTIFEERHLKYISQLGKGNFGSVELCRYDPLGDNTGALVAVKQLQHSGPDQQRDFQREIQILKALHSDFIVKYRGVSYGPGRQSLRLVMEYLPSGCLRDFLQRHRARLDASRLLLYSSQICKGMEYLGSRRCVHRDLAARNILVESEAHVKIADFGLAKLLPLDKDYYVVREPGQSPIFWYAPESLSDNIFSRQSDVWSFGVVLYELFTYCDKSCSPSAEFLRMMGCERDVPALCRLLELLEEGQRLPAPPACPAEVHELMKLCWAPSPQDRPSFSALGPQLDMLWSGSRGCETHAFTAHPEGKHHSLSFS
Sequence of human JAK2 (O60674 whole entry): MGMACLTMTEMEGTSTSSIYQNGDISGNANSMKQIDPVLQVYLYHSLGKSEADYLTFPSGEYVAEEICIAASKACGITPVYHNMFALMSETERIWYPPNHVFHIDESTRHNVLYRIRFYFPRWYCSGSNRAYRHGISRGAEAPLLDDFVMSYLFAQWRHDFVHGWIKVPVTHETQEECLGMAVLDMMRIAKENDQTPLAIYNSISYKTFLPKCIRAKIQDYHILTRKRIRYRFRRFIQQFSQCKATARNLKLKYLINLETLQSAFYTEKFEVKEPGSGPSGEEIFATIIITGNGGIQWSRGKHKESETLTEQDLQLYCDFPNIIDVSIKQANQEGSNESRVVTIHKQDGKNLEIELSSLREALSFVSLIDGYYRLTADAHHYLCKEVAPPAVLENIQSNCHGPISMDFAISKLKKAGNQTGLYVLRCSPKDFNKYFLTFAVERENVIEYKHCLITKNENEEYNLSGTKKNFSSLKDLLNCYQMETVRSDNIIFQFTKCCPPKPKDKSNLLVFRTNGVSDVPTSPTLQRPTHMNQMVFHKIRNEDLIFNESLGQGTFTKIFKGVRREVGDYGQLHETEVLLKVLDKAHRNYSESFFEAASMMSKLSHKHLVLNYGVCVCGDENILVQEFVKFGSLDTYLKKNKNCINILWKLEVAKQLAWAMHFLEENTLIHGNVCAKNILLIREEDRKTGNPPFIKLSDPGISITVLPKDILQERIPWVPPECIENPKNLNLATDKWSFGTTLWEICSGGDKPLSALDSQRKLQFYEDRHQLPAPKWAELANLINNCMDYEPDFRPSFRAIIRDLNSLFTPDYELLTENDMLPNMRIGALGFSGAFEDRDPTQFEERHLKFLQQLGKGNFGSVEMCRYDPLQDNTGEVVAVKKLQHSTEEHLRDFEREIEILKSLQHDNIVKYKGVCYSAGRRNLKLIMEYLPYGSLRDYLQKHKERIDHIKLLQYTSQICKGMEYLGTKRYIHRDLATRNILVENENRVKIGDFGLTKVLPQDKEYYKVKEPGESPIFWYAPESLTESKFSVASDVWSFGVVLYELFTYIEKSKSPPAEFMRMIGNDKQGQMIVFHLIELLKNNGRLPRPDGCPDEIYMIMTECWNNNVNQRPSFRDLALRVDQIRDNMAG
Sequence of human JAK1 (P23458 whole entry): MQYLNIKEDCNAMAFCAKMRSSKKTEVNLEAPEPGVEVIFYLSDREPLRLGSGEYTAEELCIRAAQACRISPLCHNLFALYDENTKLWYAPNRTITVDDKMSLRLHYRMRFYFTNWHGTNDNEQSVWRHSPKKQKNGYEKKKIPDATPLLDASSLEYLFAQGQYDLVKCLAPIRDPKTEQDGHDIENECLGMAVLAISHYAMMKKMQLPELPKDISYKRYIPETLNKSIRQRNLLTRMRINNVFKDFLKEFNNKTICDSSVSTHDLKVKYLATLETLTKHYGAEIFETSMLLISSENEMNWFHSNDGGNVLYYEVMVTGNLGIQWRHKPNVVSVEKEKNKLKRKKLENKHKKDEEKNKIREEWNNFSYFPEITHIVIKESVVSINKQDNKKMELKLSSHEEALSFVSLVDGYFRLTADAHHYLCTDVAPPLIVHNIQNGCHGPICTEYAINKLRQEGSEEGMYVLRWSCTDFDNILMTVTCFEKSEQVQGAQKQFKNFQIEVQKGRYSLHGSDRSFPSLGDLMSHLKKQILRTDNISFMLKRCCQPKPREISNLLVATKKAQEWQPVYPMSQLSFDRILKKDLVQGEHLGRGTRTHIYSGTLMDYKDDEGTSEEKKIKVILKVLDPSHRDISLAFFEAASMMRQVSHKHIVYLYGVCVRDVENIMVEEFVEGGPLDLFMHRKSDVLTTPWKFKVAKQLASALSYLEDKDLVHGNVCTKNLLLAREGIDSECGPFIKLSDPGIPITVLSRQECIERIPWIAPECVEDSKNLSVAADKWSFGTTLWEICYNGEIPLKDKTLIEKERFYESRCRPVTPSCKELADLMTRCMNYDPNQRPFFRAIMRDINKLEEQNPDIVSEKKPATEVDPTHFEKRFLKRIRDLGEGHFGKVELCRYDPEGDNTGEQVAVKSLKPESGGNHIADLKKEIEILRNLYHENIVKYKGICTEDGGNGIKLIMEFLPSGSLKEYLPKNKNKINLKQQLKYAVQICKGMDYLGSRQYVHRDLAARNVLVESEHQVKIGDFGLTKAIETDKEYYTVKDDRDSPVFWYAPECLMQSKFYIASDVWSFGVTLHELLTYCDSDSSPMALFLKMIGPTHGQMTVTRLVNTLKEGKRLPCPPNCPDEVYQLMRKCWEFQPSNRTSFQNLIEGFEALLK

| IC50 [1] | IC50 [2] | IC50 ([3]; Table 20, read-out: TYK2 IC50) | IC50 [4] | IC50 [3, 5] | SMILES |
| --- | --- | --- | --- | --- | --- |
| ≥ 500 nM | ≥ 500 nM | 5 to 50 nM | ≥ 500 nM | – | CCC(=O)c1cnc(Nc2ccn([C@H]3C[C@@H](O)C3)n2)cc1Nc1cccc(-c2ncn(C)n2)c1OC [Compound 21J] |
| ≥ 500 nM | 50 to 500 nM | < 5 nM | 50 to 500 nM | – | CCC(=O)c1cnc(Nc2ccc(C(N)=O)cn2)cc1Nc1cccc(-c2ncn(C)n2)c1OC [Compound 8A, 6-((4-((2-methoxy-3-(1-methyl-1H-1,2,4-triazol-3-yl)phenyl)amino)-5-propionylpyridin-2-yl)amino)nicotinamide] |
| ≥ 500 nM | ≥ 500 nM | ≥ 500 nM | ≥ 500 nM | – | CCC(=O)c1cnc(NC(=O)C2CC2)cc1Nc1cc(C#N)cc(-c2ncn(C)n2)c1OC [Compound 25B] |
| ≥ 500 nM | 50 to 500 nM | 50 to 500 nM | 50 to 500 nM | – | CCC(=O)c1cnc(Nc2ccn(CC3(CO)COC3)n2)cc1Nc1cccc(-c2ncn(C)n2)c1OC [Compound 21U] |
| ≥ 500 nM | 50 to 500 nM | < 5 nM | 50 to 500 nM | – | CCC(=O)c1cnc(Nc2cc(CN3CCCC3)sn2)cc1Nc1cccc(-c2ncn(C)n2)c1OC [Compound 21I] |
| ≥ 500 nM | ≥ 500 nM | 5 to 50 nM | ≥ 500 nM | – | CCC(=O)c1cnc(Nc2ccc(S(C)(=O)=O)cn2)cc1Nc1cccc(C(C)O)c1OC (stereo not drawn) [Compound 13Q] |
| – | – | – | – | < 5 nM | COc1c(Nc2cc(Nc3cccc(C)n3)ncc2C(C)=O)cccc1-c1ncn(C)n1 [Compound 7J] |
| ≥ 500 nM | ≥ 500 nM | 5 to 50 nM | ≥ 500 nM | – | COc1c(Nc2cc(Nc3ccc(CN(C)C)cn3)ncc2C(=O)C2CC2)cccc1-c1ncn(C)n1 [Compound 9F] |
| ≥ 500 nM | ≥ 500 nM | 5 to 50 nM | ≥ 500 nM | – | CCC(=O)c1cnc(Nc2ccnc(OC3CCN(C)CC3)n2)cc1Nc1cccc(-c2ncn(C)n2)c1OC [Compound 18II] |
| ≥ 500 nM | 50 to 500 nM | < 5 nM | ≥ 500 nM | – | CCC(=O)c1cnc(Nc2ccc(O[C@H]3COC[C@@H]3O)cn2)cc1Nc1cccc(-c2ncn(C)n2)c1OC [Compound 18R] |
| ≥ 500 nM | ≥ 500 nM | ≥ 500 nM | ≥ 500 nM | – | CCC(=O)c1cnc(NC(=O)C2CC2)cc1Nc1cc(CN(C)C)cc(-c2ncn(C)n2)c1OC [Compound 25C] |
| – | – | – | – | < 5 nM | CCOc1ccc(Nc2cc(Nc3cccc(-c4ncn(C)n4)c3OC)c(C(C)=O)cn2)nn1 [Compound 7S] |
| ≥ 500 nM | 50 to 500 nM | < 5 nM | ≥ 500 nM | – | CCC(=O)c1cnc(Nc2ccc(O[C@@H]3CCN(C)C3)c(C)n2)cc1Nc1cccc(-c2ncn(C)n2)c1OC [Compound 18YYY] |
| ≥ 500 nM | ≥ 500 nM | 5 to 50 nM | ≥ 500 nM | – | CCC(=O)c1cnc(Nc2cnc(C(N(C)C)C(F)(F)F)cn2)cc1Nc1cccc(-c2ncn(C)n2)c1OC (stereo not drawn) [Compound 9VVV] |
| ≥ 500 nM | ≥ 500 nM | < 5 nM | ≥ 500 nM | – | CCC(=O)c1cnc(Nc2ccc(OCCCO)nn2)cc1Nc1cccc(-c2ncn(C)n2)c1OC [Compound 18N] |
| ≥ 500 nM | ≥ 500 nM | 5 to 50 nM | ≥ 500 nM | – | CCC(=O)c1cnc(Nc2ccc3c(c2)COB3O)cc1Nc1cccc(-c2ncn(C)n2)c1OC [Compound 15BB] |
| ≥ 500 nM | ≥ 500 nM | < 5 nM | ≥ 500 nM | – | CCC(=O)c1cnc(Nc2ccc(OC3CCN(C)CC3)nn2)cc1Nc1cccc(-c2ncn(C)n2)c1OC [Compound 18EE] |
| – | – | – | – | 50 to 500 nM | COc1c(Nc2cc(NC(=O)CN(C)C)ncc2C(C)=O)cccc1-c1ncn(C)n1 [Compound 1M] |
| – | – | – | – | 50 to 500 nM | COc1c(Nc2cc(Nc3ncc(F)cn3)ncc2C(C)=O)cccc1-c1ncn(C)n1 [Compound 7P] |
| – | – | – | – | 5 to 50 nM | CCC(=O)Nc1cc(Nc2cccc(-c3ncn(C)n3)c2OC)c(C(C)=O)cn1 [Compound 1H] |
| – | – | – | – | 50 to 500 nM | COc1c(Nc2cc(NC(=O)N(C)C)ncc2C(C)=O)cccc1-c1ncn(C)n1 [Compound 1P] |
| – | – | – | – | 5 to 50 nM | COc1c(Nc2cc(Nc3ncccc3F)ncc2C(C)=O)cccc1-c1ncn(C)n1 [Compound 7G] |
| – | – | – | – | < 5 nM | COc1c(Nc2cc(Nc3cc(C#N)ccn3)ncc2C(C)=O)cccc1-c1ncn(C)n1 [Compound 7F] |
| – | – | – | – | < 5 nM | CCCC(=O)Nc1cc(Nc2cccc(-c3ncn(C)n3)c2OC)c(C(C)=O)cn1 [Compound 1I] |
| – | – | – | – | < 5 nM | COc1c(Nc2cc(Nc3cc(C)c(Cl)cn3)ncc2C(C)=O)cccc1-c1ncn(C)n1 [Compound 7M] |
| – | – | – | – | < 5 nM | COc1c(Nc2cc(NC(=O)[C@@H]3C[C@@H]3F)ncc2C(C)=O)cccc1-c1ncn(C)n1 [Compound 1K] |
| – | – | – | – | < 5 nM | COc1c(Nc2cc(Nc3cc(C)c(F)cn3)ncc2C(C)=O)cccc1-c1ncn(C)n1 [Compound 7L] |

| IC50 [1] | IC50 [2] | IC50 ([3]; Table 20, read-out: TYK2 IC50) | IC50 [4] | IC50 [3, 5] | SMILES |
| --- | --- | --- | --- | --- | --- |
| – | – | – | – | 50 to 500 nM | COC(=O)Nc1cc(Nc2cccc(-c3ncn(C)n3)c2OC)c(C(C)=O)cn1 [Compound 1N] |
| ≥ 500 nM | ≥ 500 nM | – | ≥ 500 nM | – | CCC(=O)c1cnc(Nc2ccc(S(=O)(=O)N(C)C)cn2)cc1Nc1cccc(-c2ncn(C)n2)c1OC [Compound 13D] |
| – | – | – | – | < 5 nM | COC(=O)c1cnc(NC(=O)C2CC2)cc1Nc1cccc(-c2ncn(C)n2)c1OC [Compound 3, methyl 6-(cyclopropanecarboxamido)-4-((2-methoxy-3-(1-methyl-1H-1,2,4-triazol-3-yl)phenyl)amino)nicotinate] |
| – | – | – | – | 5 to 50 nM | COc1c(Nc2cc(NC(=O)C3CCC3)ncc2C(C)=O)cccc1-c1ncn(C)n1 [Compound 1J] |
| – | – | – | – | < 5 nM | COc1c(Nc2cc(Nc3ccnc(C)n3)ncc2C(C)=O)cccc1-c1ncn(C)n1 [Compound 7R] |
| – | – | – | – | 50 to 500 nM | COc1c(Nc2cc(Nc3cnn(C)c3)ncc2C(C)=O)cccc1-c1ncn(C)n1 [Compound 7T] |
| – | – | – | – | 50 to 500 nM | COc1c(Nc2cc(Nc3ncccn3)ncc2C(C)=O)cccc1-c1ncn(C)n1 [Compound 7O] |
| – | – | – | – | 50 to 500 nM | COc1c(Nc2cc(NC(=O)OC(C)(C)C)ncc2C(C)=O)cccc1-c1ncn(C)n1 [Compound 1D] |
| – | – | – | 50 to 500 nM | – | CCC(=O)c1cnc(Nc2cc(C(C)NC)ncn2)cc1Nc1cccc(-c2ncn(C)n2)c1OC (stereo not drawn) [Compound 9PPPP] |
| – | – | – | – | < 5 nM | COc1c(Nc2cc(NC(=O)C3CC3)ncc2C(C)=O)cccc1-c1ncn(C)n1 [Compound 1A, N-(5-acetyl-4-((2-methoxy-3-(1-methyl-1H-1,2,4-triazol-3-yl)phenyl)amino)pyridin-2-yl)cyclopropanecarboxamide] |
| – | – | 5 to 50 nM | – | – | CCC(=O)c1cnc(Nc2cnc(O[C@@H]3CCN(CC)C3)cn2)cc1Nc1cccc(-c2ncn(C)n2)c1OC [Compound 18DDD] |
| – | – | – | – | < 5 nM | COc1c(Nc2cc(Nc3cc(C)ncn3)ncc2C(C)=O)cccc1-c1ncn(C)n1 [Compound 7Q] |
| – | – | – | – | 5 to 50 nM | COc1c(Nc2cc(NC(C)=O)ncc2C(C)=O)cccc1-c1ncn(C)n1 [Compound 1G] |
| – | – | – | – | < 5 nM | COc1c(Nc2cc(Nc3ccc(N4CCOCC4)cn3)ncc2C(C)=O)cccc1-c1ncn(C)n1 [Compound 7N] |
| – | – | – | – | ≥ 500 nM | COc1c(Nc2cc(N)ncc2C(C)=O)cccc1-c1ncn(C)n1 [Compound 2, 1-(6-amino-4-((2-methoxy-3-(1-methyl-1H-1,2,4-triazol-3-yl)phenyl)amino)pyridin-3-yl)ethan-1-one] |
| – | – | 5 to 50 nM | – | – | CCC(=O)c1cnc(Nc2cnc(C(F)(F)CN)cn2)cc1Nc1cccc(-c2ncn(C)n2)c1OC [Compound 19A, 1-(6-((5-(2-amino-1,1-difluoroethyl)pyrazin-2-yl)amino)-4-((2-methoxy-3-(1-methyl-1H-1,2,4-triazol-3-yl)phenyl)amino)pyridin-3-yl)propan-1-one] |
| – | – | 5 to 50 nM | 50 to 500 nM | – | CCC(=O)c1cnc(Nc2ccc(CN3CCN(C)CC3)nn2)cc1Nc1cccc(-c2ncn(C)n2)c1OC [Compound 9PPP] |
| – | – | – | – | 5 to 50 nM | COc1c(Nc2cc(NC(=O)[C@H]3C[C@H]3F)ncc2C(C)=O)cccc1-c1ncn(C)n1 [Compound 1L] |
| – | – | – | – | < 5 nM | COc1ccc(Nc2cc(Nc3cccc(-c4ncn(C)n4)c3OC)c(C(C)=O)cn2)nc1 [Compound 7I] |
| – | – | – | – | < 5 nM | COc1c(Nc2cc(Nc3ccccn3)ncc2C(C)=O)cccc1-c1ncn(C)n1 [Compound 7C] |
| – | – | – | – | < 5 nM | COc1c(Nc2cc(Nc3cc(C)ccn3)ncc2C(C)=O)cccc1-c1ncn(C)n1 [Compound 7D] |
| – | – | – | – | < 5 nM | COc1c(Nc2cc(Nc3ccn(C)n3)ncc2C(C)=O)cccc1-c1ncn(C)n1 [Compound 7U] |
| – | – | – | – | < 5 nM | COc1ccnc(Nc2cc(Nc3cccc(-c4ncn(C)n4)c3OC)c(C(C)=O)cn2)c1 [Compound 7E] |
| – | – | – | – | ≥ 500 nM | COc1c(Nc2cc(Nc3ccc(F)cc3)ncc2C(C)=O)cccc1-c1ncn(C)n1 [Compound 7B] |
| – | – | – | – | < 5 nM | COc1c(Nc2cc(Nc3ccc(F)cn3)ncc2C(C)=O)cccc1-c1ncn(C)n1 [Compound 7H] |
| – | – | – | – | 50 to 500 nM | COc1c(Nc2cc(NC(=O)CN3CCOCC3)ncc2C(C)=O)cccc1-c1ncn(C)n1 [Compound 1O] |
| – | – | – | – | < 5 nM | COc1cccc(Nc2cc(Nc3cccc(-c4ncn(C)n4)c3OC)c(C(C)=O)cn2)n1 [Compound 7K] |
